BindingDB's records for PubMed 8386236 (Whitby Research, 1993)

Legend:
Adenosine receptor A2b = biological target: T1, Adenosine receptor A2b (Bos taurus, UniProt Q1LZD0)
T1 sequence (Q1LZD0 whole entry): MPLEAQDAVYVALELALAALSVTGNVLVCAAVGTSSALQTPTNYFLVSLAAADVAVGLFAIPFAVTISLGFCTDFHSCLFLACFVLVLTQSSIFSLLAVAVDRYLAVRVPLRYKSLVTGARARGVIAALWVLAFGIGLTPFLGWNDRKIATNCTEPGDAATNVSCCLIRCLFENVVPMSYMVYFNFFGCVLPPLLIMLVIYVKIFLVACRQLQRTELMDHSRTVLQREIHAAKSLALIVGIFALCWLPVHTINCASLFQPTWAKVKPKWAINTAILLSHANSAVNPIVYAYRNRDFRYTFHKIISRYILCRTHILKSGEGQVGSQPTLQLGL

Adenosine receptor A2a = Adenosine receptor A2a (Cavia porcellus, UniProt P46616)
Sequence of Adenosine receptor A2a (P46616 whole entry): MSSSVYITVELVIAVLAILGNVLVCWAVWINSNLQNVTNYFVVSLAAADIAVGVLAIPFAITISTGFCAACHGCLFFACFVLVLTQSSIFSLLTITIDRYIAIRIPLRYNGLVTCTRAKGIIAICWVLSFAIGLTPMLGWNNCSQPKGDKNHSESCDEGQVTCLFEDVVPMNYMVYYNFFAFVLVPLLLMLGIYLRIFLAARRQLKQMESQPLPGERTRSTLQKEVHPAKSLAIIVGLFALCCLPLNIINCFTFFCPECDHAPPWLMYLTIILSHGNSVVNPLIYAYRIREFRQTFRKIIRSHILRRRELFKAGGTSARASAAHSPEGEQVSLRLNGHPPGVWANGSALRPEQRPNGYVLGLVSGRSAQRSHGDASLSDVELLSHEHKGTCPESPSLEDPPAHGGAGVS

Adenosine receptor A1 [1] = biological target: T2, Adenosine receptor A1 (Bos taurus, UniProt P28190)
T2 sequence (P28190 whole entry): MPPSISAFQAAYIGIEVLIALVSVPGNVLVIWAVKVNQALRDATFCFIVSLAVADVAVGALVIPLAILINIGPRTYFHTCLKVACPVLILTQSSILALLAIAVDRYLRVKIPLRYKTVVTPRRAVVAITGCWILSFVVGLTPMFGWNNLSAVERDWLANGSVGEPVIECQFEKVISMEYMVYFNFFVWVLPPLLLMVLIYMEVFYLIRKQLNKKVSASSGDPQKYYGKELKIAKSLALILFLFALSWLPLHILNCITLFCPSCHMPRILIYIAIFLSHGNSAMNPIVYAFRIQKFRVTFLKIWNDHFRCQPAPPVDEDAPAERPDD

Adenosine receptor A1 [2] = biological target: T3, Adenosine receptor A1 (Cavia porcellus, UniProt P47745)
T3 sequence (P47745 whole entry): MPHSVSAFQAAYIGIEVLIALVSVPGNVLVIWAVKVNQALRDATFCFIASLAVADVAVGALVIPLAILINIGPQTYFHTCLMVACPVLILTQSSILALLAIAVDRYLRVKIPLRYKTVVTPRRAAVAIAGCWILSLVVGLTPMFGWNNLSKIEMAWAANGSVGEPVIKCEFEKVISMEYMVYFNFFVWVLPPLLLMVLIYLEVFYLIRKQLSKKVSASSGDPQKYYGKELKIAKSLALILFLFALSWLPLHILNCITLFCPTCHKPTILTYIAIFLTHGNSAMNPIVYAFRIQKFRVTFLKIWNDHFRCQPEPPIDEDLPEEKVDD

Ki (Adenosine receptor A2b) [µM]	Ki (Adenosine receptor A2a) [µM]	Ki (Adenosine receptor A1 [1]) [µM]	Ki (Adenosine receptor A1 [2]) [µM]	Structure (SMILES)
6.92	> 10			Nc1nc(Cl)nc2c1ncn2[C@@H]1O[C@H](CO)[C@@H](O)[C@H]1O [2-CI Adenosine]
		0.0182	1.95	CC(Cc1ccccc1)Nc1ncnc2c1ncn2C1OC(CO)C(O)C1O (centres undefined) [R-N6-(2-phenylisopropyl) adenosine]
